In BindingDB's records for doi:10.1021/jm00164a009 (Research Biochemicals, 1990):

Legend:
[1] = Ability to inhibit [3H]-SCH- 23390 binding to Dopamine receptor D1 of canine striatal membranes
[2] = as above; remark: listed apart in the source

Kd [1]	Ki [2]	Compound
0.28 nM		CN1CCc2cc(I)c(O)cc2[C@H](c2ccc(N=[N+]=[N-])cc2)C1
	28 nM	CN1CCc2cc(I)c(O)cc2[C@@H](c2ccc(N=[N+]=[N-])cc2)C1
